From patent US20150125889A1, “IN VITRO DETECTION OF MICROORGANISMS WITH AZOREDUCTASE ACTIVITY” (BIOMÉRIEUX, priority 2012, published 2015)

Experiments:
Test in all cases: Reduction of azo substrates over 24 hours at 35° C., microtitration plate (Example 1)
Assay type in all cases: cell-based
Candida albicans = tested on: Candida albicans; parameters: key to RED (substrate reduced or not): RED indicates whether the substrate is reduced (Y) or not (N); RED indicates whether the substrate is reduced (Y) or not (N); key to Co (growth, absorbance at 660 nm) / Decol (substrate decolourized, decrease in absorbance) / Fluo (fluorescence multiplied by 2 relative to substrate-free control): The symbol “+” means good growth/decolourization/significant increase in fluorescence; The symbol “+/−” means difficult growth; The symbol “−” means that there is no growth/decolourization/significant increase in fluorescence; conditions: substrate 35 mg/l
In short: (§1)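 Strains were incubated 24 h at 35° C. in Trypcase soya broth with azo substrate (35 mg/l), starting from a 0.5 McFarland inoculum. Growth was monitored at 660 nm, while decolourization and fluorescence increase were scored at wavelengths specific to each substrate.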

Cronobacter muytjensii = tested on: Cronobacter muytjensii; parameters: key to RED (substrate reduced or not): RED indicates whether the substrate is reduced (Y) or not (N); RED indicates whether the substrate is reduced (Y) or not (N); key to Co (growth, absorbance at 660 nm) / Decol (substrate decolourized, decrease in absorbance) / Fluo (fluorescence multiplied by 2 relative to substrate-free control): The symbol “+” means good growth/decolourization/significant increase in fluorescence; The symbol “+/−” means difficult growth; The symbol “−” means that there is no growth/decolourization/significant increase in fluorescence; conditions: E. muytjensii, substrate 35 mg/l
In short: as §1

Escherichia coli = tested on: Escherichia coli; parameters: key to RED (substrate reduced or not): RED indicates whether the substrate is reduced (Y) or not (N); RED indicates whether the substrate is reduced (Y) or not (N); key to Co (growth, absorbance at 660 nm) / Decol (substrate decolourized, decrease in absorbance) / Fluo (fluorescence multiplied by 2 relative to substrate-free control): The symbol “+” means good growth/decolourization/significant increase in fluorescence; The symbol “+/−” means difficult growth; The symbol “−” means that there is no growth/decolourization/significant increase in fluorescence; conditions: E. coli, substrate 35 mg/l
In short: as §1

Pseudomonas aeruginosa = tested on: Pseudomonas aeruginosa; parameters: key to RED (substrate reduced or not): RED indicates whether the substrate is reduced (Y) or not (N); RED indicates whether the substrate is reduced (Y) or not (N); key to Co (growth, absorbance at 660 nm) / Decol (substrate decolourized, decrease in absorbance) / Fluo (fluorescence multiplied by 2 relative to substrate-free control): The symbol “+” means good growth/decolourization/significant increase in fluorescence; The symbol “+/−” means difficult growth; The symbol “−” means that there is no growth/decolourization/significant increase in fluorescence; conditions: P. aeruginosa, substrate 35 mg/l
In short: as §1

Staphylococcus aureus = tested on: Staphylococcus aureus; parameters: key to RED (substrate reduced or not): RED indicates whether the substrate is reduced (Y) or not (N); RED indicates whether the substrate is reduced (Y) or not (N); key to Co (growth, absorbance at 660 nm) / Decol (substrate decolourized, decrease in absorbance) / Fluo (fluorescence multiplied by 2 relative to substrate-free control): The symbol “+” means good growth/decolourization/significant increase in fluorescence; The symbol “+/−” means difficult growth; The symbol “−” means that there is no growth/decolourization/significant increase in fluorescence; conditions: S. aureus, substrate 35 mg/l
In short: as §1

Acinetobacter baumanii = tested on: Acinetobacter baumanii; parameters: key to RED (substrate reduced or not): RED indicates whether the substrate is reduced (Y) or not (N); RED indicates whether the substrate is reduced (Y) or not (N); key to Decol (substrate decolourized, decrease in absorbance) / Fluo (fluorescence multiplied by 2 relative to substrate-free control) / Co (growth, absorbance at 660 nm): The symbol “+” means good growth/decolourization/significant increase in fluorescence; The symbol “+/−” means difficult growth; The symbol “−” means that there is no growth/decolourization/significant increase in fluorescence; conditions: A. baumannii, substrate 35 mg/l
In short: as §1

Enterococcus faecalis = tested on: Enterococcus faecalis; parameters: key to RED (substrate reduced or not): RED indicates whether the substrate is reduced (Y) or not (N); RED indicates whether the substrate is reduced (Y) or not (N); key to Decol (substrate decolourized, decrease in absorbance) / Fluo (fluorescence multiplied by 2 relative to substrate-free control) / Co (growth, absorbance at 660 nm): The symbol “+” means good growth/decolourization/significant increase in fluorescence; The symbol “+/−” means difficult growth; The symbol “−” means that there is no growth/decolourization/significant increase in fluorescence; conditions: E. faecalis, substrate 35 mg/l
In short: as §1

In the case of O=S(=O)([O-])c1ccc(N=Nc2c(O)ccc3ccccc23)cc1.[Na+] [Orange II], the “Co (growth, absorbance at 660 nm)” value (Candida albicans) is reported as “+”, the “Decol (substrate decolourized, decrease in absorbance)” value (Candida albicans) is reported as “−” and the “Fluo (fluorescence multiplied by 2 relative to substrate-free control)” value (Candida albicans) is reported as “−”. For the same molecule, the “RED (substrate reduced or not)” value (Candida albicans) was “N”, the “Co (growth, absorbance at 660 nm)” value (Cronobacter muytjensii) was “+” and the “Decol (substrate decolourized, decrease in absorbance)” value (Cronobacter muytjensii) was “−”. For the same molecule, the “Fluo (fluorescence multiplied by 2 relative to substrate-free control)” value (Cronobacter muytjensii) was “−”, the “RED (substrate reduced or not)” value (Cronobacter muytjensii) was “N” and the “Co (growth, absorbance at 660 nm)” value (Escherichia coli) was “+”. The “Decol (substrate decolourized, decrease in absorbance)” value (Escherichia coli) was “−”, the “Fluo (fluorescence multiplied by 2 relative to substrate-free control)” value (Escherichia coli) was “−” and the “RED (substrate reduced or not)” value (Escherichia coli) was “N”. The “Co (growth, absorbance at 660 nm)” value (Pseudomonas aeruginosa) was “+”, the “Decol (substrate decolourized, decrease in absorbance)” value (Pseudomonas aeruginosa) was “−” and the “Fluo (fluorescence multiplied by 2 relative to substrate-free control)” value (Pseudomonas aeruginosa) was “−”. For the same molecule, the “RED (substrate reduced or not)” value (Pseudomonas aeruginosa) was “N”, the “Co (growth, absorbance at 660 nm)” value (Staphylococcus aureus) was “+” and the “Decol (substrate decolourized, decrease in absorbance)” value (Staphylococcus aureus) was “−”. For the same molecule, the “Fluo (fluorescence multiplied by 2 relative to substrate-free control)” value (Staphylococcus aureus) was “−”, the “RED (substrate reduced or not)” value (Staphylococcus aureus) was “N” and the “Co (growth, absorbance at 660 nm)” value (Acinetobacter baumanii) was “+”. For the same molecule, the “Decol (substrate decolourized, decrease in absorbance)” value (Acinetobacter baumanii) was “−”, the “Fluo (fluorescence multiplied by 2 relative to substrate-free control)” value (Acinetobacter baumanii) was “−” and the “RED (substrate reduced or not)” value (Acinetobacter baumanii) was “N”. For the same molecule, the “Co (growth, absorbance at 660 nm)” value (Enterococcus faecalis) was “+”, the “Decol (substrate decolourized, decrease in absorbance)” value (Enterococcus faecalis) was “+” and the “Fluo (fluorescence multiplied by 2 relative to substrate-free control)” value (Enterococcus faecalis) was “+”. The “RED (substrate reduced or not)” value (Enterococcus faecalis) was “Y”.
